From patent US20030148963A1 (priority 2000, published 2003)
Marks after values point to notes of the source that are not given here.

Assays:
[1] = system: T cell mediated DTH reaction; assay: Delayed type hypersensitivity to oxazolone (ear swelling); format: in vivo, mice; settings: 12.5 mg/kg two days, the day before and 1 h before challenge; 24 h; similar to controls
TNF [2] = assay: TNF release by IC-21 macrophage cell line; format: cell-based, murine
Experimental: Levels of TNF, IL-1b, RANTES, and macrophage inflammatory protein (MIP)-1α were determined using sandwich ELISA from R&D Systems (Minneapolis, Minn.).
These cells display many typical features of the macrophage phenotype and are therefore a suitable model for studying cytoline and chemokine release during inflammation (16). The cells were maintained in continous culture using RPMI-1640 supplemented with 10% FCS, L-glutamine, and gentamycin. When the cells had grown to about 70% confluency, they were seeded into a 24-well-plate (Nunc) at a concentration of 1×10^5 per well and incubated at 37° C. in 5% CO2 for 24 h. […] After 24 h of incubation, the cells were washed once with PBS, and reincubated with medium containing different concentrations (1, 10, 100, 1000 ng/ml) of LPS (Difco) and IFN-γ (10, 50, 100 u/nml). The interferon-γ was purified from the supernatants from Chinese hanater ovary (CHO) cells transfected with the murine IFN-γ gene (hybridoma kindly provided by Dr. Morris, Department of Biological Sciences, University of Warwick, Coventry, UK). After 2 and 24 h of incubation the supernatants were collected and stored at −20° C. until analysis.

IL-6 [3] = assay: Serum IL-6 in CII immunized mice (B9 bioassay); format: in vivo, B10.QxDBA/1 female mice; settings: serum at end of experiment, mean ± SEM
Experimental: For quantification of serfu CII antibodies, 96-well plates (Nunc, Roskilde, Denmark) were coated overnight at 4° C. with 10 μg/ml of native CII. Standards and samples were diluted in 0.5% BSA-PBS. Biotinylated F(ab/)2 fragments of goat anti-mouse IgG (Jackson ImmunoResearch Laboratories, West Grove, Pa.) was used as secondary antibody. Development was performed using horseradish peroxidase 0.5 μg/ml and 2.5 mg of the enzyme substrate 2,2-azino-bis-(3-ethylbenzothiazoline sulfonic acid) (Sigma) per mal in citrate buffer (pH 4.2), containing 0.0075% H2O2. The absorbance was measured at 405 nm in a SPECTRAmax spectrophotometer (Molecular Devices, Calif.). IFN-γ levels in sera were quantified with an ELISA system previously described (13). Ninety-six well plates (Nunc) were coated with 2 μg/ml of rat anti-mouse IFN-γ mab (Pharmingen, San Diego, Calif.). Sera, recombinant IFN-γ (Genzyme, Cambridge, Mass.), biotinylated antibodies were all diluted in 0.05 M Tris pH 7.4+0.015 M NaCl. A biotinylated anti mouse IFN-γ antibody (2 μg/ml) (Pharmigen) was used as secondary antibody. After incubation with extravidin alkaline phosphatase 0.5 ?g/ml and alkaline phosphatase substrate 1 mg/ml (Sigma) the absorbance was measured at 405 nm. Interleukin 6 (IL-6) levels in serum and supernatants were measured by a bioassay using cell line B13.29, subclone B9, which is dependent on IL-6 for growth. […]

IL-6 [4] = format: cell-based, NMRI mice; settings: spleen cells from non-infected in vivo etoposide-treated mice; mean ± SEM, four mice
TNF [5] = format: cell-based, NMRI mice; settings: spleen cells from non-infected in vivo etoposide-treated mice; mean ± SEM, four mice
[6] = system: granulocyte mediated inflammatory response; assay: Olive oil induced inflammation (foot-pad swelling); format: in vivo; settings: non-infected mice, n=6, 24 h after injection; no difference to controls
Experimental: Olive oil induces in vivo a strong granulocyte mediated but T cell independent inflammatory response. Inflammation was induced by injection of 30 μl olive oil (Apoteksbolaget AB, Göteborg, Sweden) intradermally in hind foot-pad. […] Foot-pad swelling was registered 24 h after injection using an Oditest spring caliper. The intensity of the olive oil induced inflammation was expressed (foot-pad thickness^24 h−foot-pad thickness^0 h)×10^−3 cm.

TNF-α = format: cell-based; settings: spleen cells of mice given 12.5 mg/kg 4 days a week for 4 weeks; mean ± SEM, 4 mice
spleen mononuclear cells = format: cell-based, NMRI mice; settings: spleen cells from naive mice, etoposide 1, 10, 100 μM; FIG. 2

In the case of COc1cc([C@@H]2c3cc4c(cc3[C@@H](O[C@@H]3O[C@@H]5CO[C@@H](C)O[C@H]5[C@H](O)[C@H]3O)[C@H]3COC(=O)[C@H]23)OCO4)cc(OC)c1O [Etoposide], the “DTH reaction to oxazolone (ear thickness increase)” value [1] was 32±6 ×10^−3 cm, the “Levels of TNF in supernatants” value (TNF [2]; etoposide 0.01 μM 24 h, then IFN-γ 10 u/ml 24 h) was 52 pg/mL and the “Levels of TNF in supernatants” value (TNF [2]; etoposide 0.01 μM 24 h, then IFN-γ 50 u/ml 24 h) was 56 pg/mL. The “Levels of TNF in supernatants” value (TNF [2]; etoposide 0.01 μM 24 h, then IFN-γ 100 u/ml 24 h) was 65 pg/mL, the “Levels of TNF in supernatants” value (TNF [2]; etoposide 0.01 μM 24 h, then LPS 0 ng/ml 24 h) was 66 pg/mL and the “Levels of TNF in supernatants” value (TNF [2]; etoposide 0.01 μM 24 h, then LPS 1 ng/ml 24 h) was 207 pg/mL. The “Levels of TNF in supernatants” value (TNF [2]; etoposide 0.01 μM 24 h, then LPS 10 ng/ml 24 h) was 3050 pg/mL, the “Levels of TNF in supernatants” value (TNF [2]; etoposide 0.01 μM 24 h, then LPS 100 ng/ml 24 h) was 11900 pg/mL and the “Levels of TNF in supernatants” value (TNF [2]; etoposide 0.01 μM 24 h, then LPS 1000 ng/ml 24 h) was 12375 pg/mL. The “Levels of TNF in supernatants” value (TNF [2]; etoposide 0.1 μM 24 h, then IFN-γ 10 u/ml 24 h) was 20 pg/mL, the “Levels of TNF in supernatants” value (TNF [2]; etoposide 0.1 μM 24 h, then IFN-γ 50 u/ml 24 h) was 32 pg/mL and the “Levels of TNF in supernatants” value (TNF [2]; etoposide 0.1 μM 24 h, then IFN-γ 100 u/ml 24 h) was 34 pg/mL. The “Levels of TNF in supernatants” value (TNF [2]; etoposide 0.1 μM 24 h, then LPS 0 ng/ml 24 h) was 24 pg/mL, the “Levels of TNF in supernatants” value (TNF [2]; etoposide 0.1 μM 24 h, then LPS 1 ng/ml 24 h) was 72 pg/mL and the “Levels of TNF in supernatants” value (TNF [2]; etoposide 0.1 μM 24 h, then LPS 10 ng/ml 24 h) was 1125 pg/mL. The “Levels of TNF in supernatants” value (TNF [2]; etoposide 0.1 μM 24 h, then LPS 100 ng/ml 24 h) was 2325 pg/mL, the “Levels of TNF in supernatants” value (TNF [2]; etoposide 0.1 μM 24 h, then LPS 1000 ng/ml 24 h) was 3650 pg/mL and the IL-6 (IL-6 [3]; Etoposide-pretreated) was 117 ± 21a pg/ml. The IL-6 (IL-6 [3]; Etoposide-treated (from day 40)) was 179 ± 21^b pg/ml, the “IL-6, ConA stimulated” value (IL-6 [4]) was 455 ± 85^b pg/ml and the “IL-6, TSST-1 stimulated” value (IL-6 [4]) was 255 ± 66b pg/ml. The “TNF, ConA stimulated” value (TNF [5]) was 138 ± 17 pg/mL, the “TNF, TSST-1 stimulated” value (TNF [5]) was 77 ± 22 pg/mL and the “Foot-pad swelling, olive oil induced inflammation” value [6] was 128±131 ×10^−3 cm. For the same molecule, the “TNF-α, Con A” value (TNF-α) was 6 ± 0.5^a) pg/ml, the “TNF-α, TSST-1” value (TNF-α) was 6 ± 0.4^a) pg/ml and the “Proliferative responses to Con A and TSST-1” value (spleen mononuclear cells) was “significantly decreased upon increasing concentrations”.
